Read-outs that look alike come from different tables or passages of the source.
Columns and labels:
DPP-IV = target: T1, DPP-IV (Homo sapiens, UniProt P27487); experiment: Test for determination of DPP-IV inhibiting activity (Gly-Pro-AMC cleavage by human plasma); format: biochemical
T1 construct: added was 5 μL of plasma collected from healthy adult volunteers; from tissue; host or cells: plasma of healthy adult volunteers
Protocol: (1) Test for Determination of DPP-IV Inhibiting Activity:
The reaction was performed in a 96-well flat-bottom microtiter plate. A varying concentration of the test compound was added to an aqueous solution comprised of 25 mM Tris-HCl, 140 mM sodium chloride, 10 mM potassium chloride, 1% RIA-grade bovine serum albumin, and 0.01 mM Gly-Pro-AMC (Bachem). To this reaction solution (95 μL/well), added was 5 μL of plasma collected from healthy adult volunteers, and incubated at room temperature for 20 minutes. […] The data of 3 wells under the same conditions were averaged.
The inhibition in the test group, relative to the solvent-added group was calculated, and the IC50 value thereof was obtained through logistic analysis.

plasma DPP-IV [1] = target: T2, plasma DPP-IV (Mus musculus, UniProt P28843); experiment: Test for DPP-IV inhibiting activity duration in mice; format: in vivo; conditions: po
T2 construct: The collected blood was immediately centrifuged to isolate the plasma; from tissue; host or cells: plasma of male ICR mice (Nippon SLC)
T2 sequence (P28843 37-760 limits assumed): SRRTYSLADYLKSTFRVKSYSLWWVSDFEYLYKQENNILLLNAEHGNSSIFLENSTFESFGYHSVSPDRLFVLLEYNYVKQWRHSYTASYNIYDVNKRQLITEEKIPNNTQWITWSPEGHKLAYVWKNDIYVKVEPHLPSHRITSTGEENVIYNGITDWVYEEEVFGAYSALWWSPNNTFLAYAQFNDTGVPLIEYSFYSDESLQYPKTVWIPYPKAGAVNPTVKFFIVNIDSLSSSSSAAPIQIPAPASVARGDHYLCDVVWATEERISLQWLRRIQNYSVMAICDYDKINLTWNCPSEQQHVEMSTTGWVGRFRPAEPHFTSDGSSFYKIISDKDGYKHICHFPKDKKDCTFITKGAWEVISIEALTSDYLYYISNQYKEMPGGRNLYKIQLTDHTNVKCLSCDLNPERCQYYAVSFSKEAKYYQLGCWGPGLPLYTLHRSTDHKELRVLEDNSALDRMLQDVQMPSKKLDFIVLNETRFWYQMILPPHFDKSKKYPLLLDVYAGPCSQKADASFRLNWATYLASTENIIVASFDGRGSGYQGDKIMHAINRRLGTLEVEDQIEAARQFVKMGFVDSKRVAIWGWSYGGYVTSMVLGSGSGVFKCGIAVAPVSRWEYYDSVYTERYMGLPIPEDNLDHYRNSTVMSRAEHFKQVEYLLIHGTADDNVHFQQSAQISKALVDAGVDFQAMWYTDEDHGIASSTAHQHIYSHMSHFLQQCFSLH
Protocol: (2) Test for DPP-IV Inhibiting Activity Duration in Mice:
(§1) Male ICR mice (Nippon SLC) were grouped into a test group and a control group of 5 subjects each. A test compound (10 mg/kg) was dissolved in purified water, and orally administered. Purified water alone was orally administered to the mice of the control group. One half, 6, and 12 hours after the administration, the blood was collected from each mouse through the orbital venous plexus thereof. The collected blood was immediately centrifuged to isolate the plasma, and the DPP-IV activity of the plasma was measured.
(§2) The process of plasma DPP-IV activity determination was as follows: The reaction was performed in a 96-well plate. 5 μl of the collected plasma was added to an aqueous solution (95 μl/well) comprises 25 mM Tris-HCl, 140 mM sodium chloride, 10 mM potassium chloride, 1% bovine serum albumin, and 0.01 mM Gly-Pro-AMC (Bachem), and incubated at room temperature for 20 minutes.
(§3) The fluorescent intensity of the well, to which was added the plasma collected from the control group, was 100%. Based on it, the DPP-IV activity of the plasma collected from the test compound-administered mice was calculated, and the activity difference between the control group and the test group was obtained. This indicated the inhibition in the test group.

plasma DPP-IV [2] = target: T3, plasma DPP-IV (Rattus norvegicus, UniProt P14740); experiment: Test for DPP-IV inhibiting activity duration in rats; format: in vivo; conditions: po
T3 construct: The collected blood was immediately centrifuged to isolate the plasma; from tissue; host or cells: plasma of male SD rats (Clea Japan)
T3 sequence (P14740 37-767 limits assumed): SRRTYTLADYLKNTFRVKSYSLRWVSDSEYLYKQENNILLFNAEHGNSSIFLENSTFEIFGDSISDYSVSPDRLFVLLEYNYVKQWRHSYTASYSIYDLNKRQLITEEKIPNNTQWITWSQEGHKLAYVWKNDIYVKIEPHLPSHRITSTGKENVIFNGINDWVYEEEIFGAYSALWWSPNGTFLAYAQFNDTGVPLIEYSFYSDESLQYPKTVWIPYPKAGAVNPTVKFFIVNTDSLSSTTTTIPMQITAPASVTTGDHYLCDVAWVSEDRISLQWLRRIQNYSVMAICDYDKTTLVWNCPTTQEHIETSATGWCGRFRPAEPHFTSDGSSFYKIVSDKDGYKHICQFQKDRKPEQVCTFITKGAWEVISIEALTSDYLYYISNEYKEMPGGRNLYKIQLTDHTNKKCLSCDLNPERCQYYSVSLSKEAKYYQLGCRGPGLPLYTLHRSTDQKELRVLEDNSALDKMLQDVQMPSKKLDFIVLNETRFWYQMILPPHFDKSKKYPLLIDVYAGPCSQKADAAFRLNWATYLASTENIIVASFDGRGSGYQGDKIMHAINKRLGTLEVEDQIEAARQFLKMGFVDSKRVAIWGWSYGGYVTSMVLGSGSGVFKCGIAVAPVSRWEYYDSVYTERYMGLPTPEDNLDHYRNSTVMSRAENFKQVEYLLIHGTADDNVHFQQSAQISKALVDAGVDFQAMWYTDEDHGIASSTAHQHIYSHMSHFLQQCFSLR
Protocol: as §2
(3) Test for DPP-IV Inhibiting Activity Duration in Rats:
as §1, with “SD rats (Clea Japan)” for “ICR mice (Nippon SLC)”, “rats” for “mice”, “rat” for “mouse”, “tail vein” for “orbital venous plexus”, “measured according to the same process as in the dipeptidyl peptidase-IV (DPP-IV) inhibiting activity duration test shown in (2).” for “measured.”
as §3, with “rats” for “mice”

[3] = plasma from healthy adult volunteers, 0.01 mM Gly-Pro-AMC, room temperature, 20 minutes, read-out: IC50 (DPP-IV inhibiting activity)
[4] = male ICR mice, 10 mg/kg orally, 12 h after administration, relative to control group, read-out: inhibition of plasma DPP-IV activity after 12 h
[5] = read-out: inhibition of plasma DPP-IV activity after 6 h, male ICR mice, 10 mg/kg orally, 6 h after administration, relative to control group
[6] = male SD rats, 10 mg/kg orally, 12 h after administration, relative to control group, read-out: inhibition of plasma DPP-IV activity after 12 h
[7] = read-out: inhibition of plasma DPP-IV activity after 6 h, male SD rats, 10 mg/kg orally, 6 h after administration, relative to control group
[8] = read-out: inhibition of plasma DPP-IV activity after 6 h
[9] = read-out: inhibition of plasma DPP-IV activity after 12 h

T1 sequence (P27487 39-766 limits assumed): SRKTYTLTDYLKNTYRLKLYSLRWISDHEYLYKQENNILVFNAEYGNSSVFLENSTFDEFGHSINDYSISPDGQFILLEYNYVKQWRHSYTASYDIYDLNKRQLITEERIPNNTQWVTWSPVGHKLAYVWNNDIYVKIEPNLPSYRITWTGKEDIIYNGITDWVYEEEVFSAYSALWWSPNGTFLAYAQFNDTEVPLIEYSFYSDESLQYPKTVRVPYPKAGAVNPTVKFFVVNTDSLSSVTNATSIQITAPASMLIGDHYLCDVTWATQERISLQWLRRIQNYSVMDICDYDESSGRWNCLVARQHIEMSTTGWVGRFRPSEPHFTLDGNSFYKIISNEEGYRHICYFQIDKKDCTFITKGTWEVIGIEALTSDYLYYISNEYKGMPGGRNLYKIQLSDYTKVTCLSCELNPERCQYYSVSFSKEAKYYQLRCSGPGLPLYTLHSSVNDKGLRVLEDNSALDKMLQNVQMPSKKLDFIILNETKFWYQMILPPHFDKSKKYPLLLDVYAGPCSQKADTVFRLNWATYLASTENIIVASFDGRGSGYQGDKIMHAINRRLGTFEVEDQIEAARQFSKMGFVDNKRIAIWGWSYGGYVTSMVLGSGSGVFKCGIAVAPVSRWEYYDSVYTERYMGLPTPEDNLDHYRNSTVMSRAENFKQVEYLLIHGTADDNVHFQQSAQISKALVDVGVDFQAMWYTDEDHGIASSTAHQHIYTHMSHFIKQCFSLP

SMILES	IC50 (DPP-IV; [3]) [nM]	inhibition at 10 mg/kg (plasma DPP-IV [1]; [4]) [%]	inhibition at 10 mg/kg (plasma DPP-IV [1]; [5]) [%]	inhibition at 10 mg/kg (plasma DPP-IV [2]; [6]) [%]	inhibition at 10 mg/kg (plasma DPP-IV [2]; [7]) [%]	further results
CS(=O)(=O)N1CCC(NCC(=O)N2C[C@@H](F)C[C@H]2C#N)CC1 [Example 1, (2S,4S)-4-fluoro-1-({[1-(methanesulfonyl)piperidin-4-yl]amino}acetyl)pyrrolidine-2-carbonitrile monofumarate]	4.2	59	74	–	–	–
N#C[C@@H]1C[C@H](F)CN1C(=O)CNC1CCN(C=O)CC1 [Example 19]	4.2	61	72	–	–	–
N#C[C@@H]1C[C@H](F)CN1C(=O)CNC1CCN(C(=O)CO)CC1 [Example 21]	6	71	78	–	–	–
N#C[C@@H]1C[C@H](F)CN1C(=O)CNC1CCN(C(=O)N2CCOCC2)CC1 [Example 28]	5.1	–	–	–	–	–
CC1(NCC(=O)N2C[C@@H](F)C[C@H]2C#N)CCN(C(=O)CO)CC1 [Example 34]	8.2	79	85	94	96	–
CC1(NCC(=O)N2C[C@@H](F)C[C@H]2C#N)CCN(C=O)CC1 [Example 36]	7.5	78	81	86	92	–
CC1(NCC(=O)N2C[C@@H](F)C[C@H]2C#N)CCN(C(=O)CF)CC1 [Example 41]	–	–	–	–	–	IC50 (DPP-IV): 5.9 nM; inhibition at 10 mg/kg (plasma DPP-IV [1]; [8]): 83%; inhibition at 10 mg/kg (plasma DPP-IV [1]; [9]): 78%; inhibition at 10 mg/kg (plasma DPP-IV [2]; [8]): 93%; inhibition at 10 mg/kg (plasma DPP-IV [2]; [9]): 89%
CS(=O)(=O)N1CCC(NCC(=O)N2CCC[C@H]2C#N)CC1 [compound 1, reference compound]	–	–	–	38	65	–
COCC(=O)N1CCC(NCC(=O)N2CCC[C@H]2C#N)CC1 [compound 2, reference compound]	–	–	–	55	77	–
COC(C)S(=O)(=O)N1CCC(C)(NCC(=O)N2C[C@@H](F)C[C@H]2C#N)CC1 (stereo partly shown) [compound 3, reference compound]	–	–	–	45	80	–

From patent US7268150B2, “2-cyano-4-fluoropyrrolidine derivative or its salt” (Yamanouchi Pharmaceutical Co., Ltd., priority 2002, dated 2007)
